Laboratory results from PubChem BioAssay (NCI).
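Following 48 hours of exposure in 96-well plates, responses at five concentrations were used to interpolate endpoints linearly. At the GI50, growth is halved. TGI denotes the concentration required for complete inhibition of growth.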

Tests used:
Experiment in all cases: NCI-60 cell line screen, 48 h
[1] = test system: OVCAR-5 ovarian
[2] = test system: EKVX NSCLC
[3] = test system: HT29 colon
[4] = test system: IGROV1 ovarian
[5] = test system: SK-MEL-5 melanoma
[6] = test system: UACC-257 melanoma
[7] = test system: LOX IMVI melanoma
[8] = test system: SNB-75 CNS
[9] = test system: M14 melanoma
[10] = test system: NCI-H226 lung

SMILES	GI50 [1] [µM]	TGI [1] [µM]	GI50 [2] [µM]	TGI [2] [µM]	GI50 [3] [µM]	TGI [3] [µM]	GI50 [4] [µM]	TGI [4] [µM]	GI50 [5] [µM]	TGI [5] [µM]	GI50 [6] [µM]	TGI [6] [µM]	GI50 [7] [µM]	TGI [7] [µM]	GI50 [8] [µM]	TGI [8] [µM]	GI50 [9] [µM]	TGI [9] [µM]	GI50 [10] [µM]	TGI [10] [µM]
COc1cc(C)c(N(C)C(=O)CN(C)C)cc1Nc1nc(Nc2cccc(F)c2C(N)=O)c2cc[nH]c2n1	1.41	> 25	> 25	> 25	1.37	> 25	> 25	> 25	13.3	> 25	> 15.1	> 25	24.6	> 25	> 25	> 25	> 25	> 25	> 24	> 25
CCCCCn1ncc(-c2c(O)c(O)cc3c(O)c(-c4c(C)cc5c(-c6cnn(CCCCC)n6)c(O)c(O)cc5c4O)c(C)cc23)n1	0.222	6.57	0.177	4.61	0.12	3.45	0.182	4.75	0.388	2.31	0.792	6.12	0.0908	1.16	0.165	3.84	0.182	2.89	0.141	2.8
O=C1c2ccccc2C(=O)c2c1c(NCCNCCO)c1cc[nH]c1c2NCCNCCO	3.96	> 31.3	4.65	25.5	2.78	> 41.4	9.23	> 100	3.17	16.4	7.06	29.9	1.53	> 100	9.77	> 100	7.27	> 55.1	1.78	13.5
CN1CCN(c2ccc3nc(-c4ccc5nc(-c6ccc(C(F)(F)F)cc6)[nH]c5c4)[nH]c3c2)CC1	2.68	6.58	2.06	4.38	1.41	3.13	6.13	21.7	3.36	15.5	1.75	3.42	1.82	3.36	1.87	9.97	1.36	2.89	9.59	29.9
CCCN(CCC)c1ccc(C=O)c(OC)c1	19.5	> 100	16.1	76.1	17	70.8	32.8	> 100	14.5	29.3	18.5	61.2	25.8	> 100	16.4	95.9	–	–	28.5	> 100
S=C1SC2(CCCCCC2)NC2=C1CCCCC2	–	> 100	–	44.2	–	> 100	–	> 100	–	43.2	–	67.1	–	> 100	–	81.8	–	> 100	–	52.4
COc1ccc(S(=O)(=O)N2CCCCC2)cc1NC(=O)c1[nH]c(C)c2c1CCCCC2=O	2.53	> 100	3.78	> 100	0.822	21.7	1.45	44.3	1.4	3.88	0.853	24.7	0.887	2.79	0.141	3.46	1.49	> 100	1.27	34.7
CC(C)NCCCNC1=C(Cl)C(=O)c2ccccc2C1=O	14.3	31.1	1.4	2.83	2.5	5.12	2.33	5.16	1.54	2.88	1.91	3.63	1.87	3.96	10.3	22.4	1.86	3.49	12.8	27.6
CP(=O)(CCSc1ccccc1)c1ccccc1 (stereo not given)	–	–	–	> 100	–	> 100	–	> 100	–	> 100	–	> 100	–	> 100	–	> 100	–	> 100	–	> 100
O=c1c2cc(-c3ccccc3)sc2nc2sc(-c3ccccc3)nn12	–	> 100	–	> 100	–	> 100	–	> 100	–	> 100	–	> 100	–	> 100	–	> 100	–	> 100	–	> 100
Cc1occc1C(=S)Nc1ccc(Cl)c(C(=O)OCC2CC2)c1	–	> 100	–	> 100	–	> 100	–	> 100	–	> 100	–	> 100	–	> 100	–	70.1	–	> 100	–	> 100
Cc1ccc2nc(NC(=O)CSC(=S)N3CCN(Cc4ccccc4)CC3)sc2c1	> 100	> 100	> 100	> 100	75.2	> 100	> 100	> 100	56	> 100	> 100	> 100	–	> 21	> 100	> 100	> 100	> 100	> 100	> 100
Cc1cc(Cl)ccc1N1C(=O)C(=O)C(c2nc3ccccc3s2)/C(=N\NC(=O)c2ccccc2O)C1=O (stereo not given)	–	> 100	–	> 100	–	> 100	–	> 100	–	> 100	–	> 100	–	> 100	–	> 100	–	> 100	–	> 100
CCOc1ccc2c(-c3ccnc(Nc4cccc(C(F)(F)F)c4)n3)cnn2n1	> 15.9	> 25	> 17.9	> 25	10.1	> 25	10.9	> 25	> 25	> 25	> 25	> 25	12.3	> 25	9.81	> 25	> 25	> 25	> 25	> 25
CO/N=C(\COc1ccc2c(=O)cc(-c3ccccc3)oc2c1)c1ccc(OC)cc1	> 100	> 100	> 100	> 100	> 100	> 100	> 100	> 100	> 100	> 100	> 100	> 100	> 100	> 100	38.2	> 100	> 100	> 100	> 100	> 100
COc1cc2c3c(n(CCCn4cccn4)c(=O)c2cc1OC)-c1cc2c(cc1C3=O)OCO2	14	64.4	8.79	> 53.1	2.56	25.4	1.8	29	1.48	5.24	9.92	> 100	0.728	11.1	1.53	15.4	0.461	5.07	0.922	9.51

SMILES	GI50 [1] [µM]	TGI [1] [µM]	GI50 [2] [µM]	TGI [2] [µM]	GI50 [3] [µM]	TGI [3] [µM]	GI50 [4] [µM]	TGI [4] [µM]	GI50 [5] [µM]	TGI [5] [µM]	GI50 [6] [µM]	TGI [6] [µM]	GI50 [7] [µM]	TGI [7] [µM]	GI50 [8] [µM]	TGI [8] [µM]	GI50 [9] [µM]	TGI [9] [µM]	GI50 [10] [µM]	TGI [10] [µM]
CC[O+]=c1cccc2ssnc1-2	–	> 100	–	> 100	–	> 100	–	> 100	–	> 100	–	> 100	–	> 100	–	72.5	–	> 100	–	> 100
Cc1ccc(S(=O)(=O)NC(C)C(=O)O)cc1 (stereo not given)	–	> 100	–	> 100	–	> 100	–	> 100	–	> 100	–	> 100	–	> 100	–	> 100	–	> 100	–	> 100
Nc1nc(N)c2ncn(Cc3c(Cl)cccc3Cl)c2n1	–	> 100	–	> 100	–	> 100	–	> 100	–	> 100	–	> 100	–	> 100	–	48.7	–	> 100	–	> 100
COc1ccccc1NC(=O)N/C(N)=N/c1nc2ccccc2s1	0.42	> 100	0.409	> 100	0.0389	> 100	0.0884	> 100	0.201	> 100	–	> 100	0.145	> 100	0.0556	–	0.0788	> 100	0.949	> 100
O=c1cc(-c2ccccc2)oc2cc(OCc3cn(Cc4ccc(F)cc4)nn3)cc(O)c12	> 100	> 100	63.8	> 100	> 100	> 100	17.6	> 100	> 100	> 100	> 100	> 100	> 100	> 100	3.74	28	> 100	> 100	3.51	> 100
Cc1cc(C)c(S(=O)(=O)Oc2ccccc2[N+](=O)[O-])c(C)c1	5.67	> 100	3.26	> 100	0.921	> 100	2.68	> 100	2	7.8	4.22	> 100	3.33	> 100	1.82	7.04	0.976	> 26.6	10.6	> 100
[O-]c1c(-c2ccccc2)[se]c(-c2ccccc2)[n+]1-c1ccccc1	–	–	–	35.4	–	52.9	–	13.6	–	26.5	–	25.3	–	30.5	–	22	–	17.6	–	9.11
O=C(O/N=C1/CCC/C1=C\c1ccccc1)c1ccc(Cl)cc1	–	> 100	–	> 100	–	> 100	–	> 65	–	> 100	–	> 100	–	> 100	–	78	–	> 100	–	> 100
CC(C)(C)c1cc2c(OP(c3ccccc3)c3ccccc3)c(c1)Cc1cc(C(C)(C)C)cc(c1OP(c1ccccc1)c1ccccc1)Cc1cc(C(C)(C)C)cc(c1OP(c1ccccc1)c1ccccc1)Cc1cc(C(C)(C)C)cc(c1OP(c1ccccc1)c1ccccc1)C2	> 50	> 50	> 50	> 50	47.8	> 50	> 50	> 50	> 50	> 50	> 50	> 50	22.9	> 50	> 50	> 50	> 50	> 50	> 50	> 50
CC(C)[C@H](COC(C)(C)C)N=CN1CSc2ccccc21	–	> 100	–	> 100	–	> 100	–	> 100	–	63	–	–	–	93.2	–	77.1	–	> 100	–	> 100
CC(=O)N1C(=O)C(=O)c2cc(Cl)ccc21	–	> 100	–	> 100	–	> 100	–	> 100	–	> 100	–	–	–	> 100	–	> 100	–	> 100	–	> 100
COC(=O)/C1=C/C2CC(/C=C(/c3ccccc3)C(=O)O1)C2	–	–	–	> 100	–	65.4	–	> 100	–	47	–	23.2	–	40.3	–	35.4	–	> 100	–	44.7
C[C@]1(O)CC(=O)[C@]2(O)C3=C(C=C[C@]2(O)C1)C(=O)c1c(O)cccc1C3=O	6.51	19.8	11.6	23.8	3.26	> 100	–	–	1.75	3.47	1.68	3.21	2.25	5.77	11.4	26.4	1.7	3.45	1.69	3.69
Cc1cc2cc(Oc3ccnc(Nc4cccc(CS(=O)(=O)NCCN(C)C)c4)n3)ccc2[nH]1	5.29	19.5	12.2	26.7	2.96	10.6	4.51	18.9	1.86	3.5	2.33	4.79	3.51	15	1.31	4.89	–	–	7.25	22.1
O=C1c2ccccc2C(=O)N1C/C=N/NS(=O)(=O)c1ccc(Cl)cc1	–	–	–	> 100	–	> 100	–	> 100	–	> 100	–	> 100	–	> 100	–	> 100	–	> 100	–	> 100
